This note sets out measurements from patent US11530206B2, “Phenylaminopyrimidine amide autophagy inhibitors and methods of use thereof” (Deciphera Pharmaceuticals, LLC, priority 2019, dated 2022).

Each structure is given as a SMILES string.

The subject of assay [1] is ULK kinase. Description: pATG13 levels of mutant KRas HCT-116 cells after treatment with ULK inhibitors in combination with trametinib (ELISA). It is filed as cell-based, human. The settings on record: HCT-116 colon cancer cells, 250 nM trametinib, overnight, pS318-ATG13. How it is done:
The following day, 10 μL of media containing trametinib or DMSO as a control was added to wells. […] A dose response of a test compound (0.6 μL per well) was added. DMSO (0.6 μL) was added to control wells. The plate was briefly shaken to mix wells and then incubated at 37° C. overnight. The next day, the media was aspirated and cells were washed with Dulbecco's Phosphate Buffered Saline (Gibco). Cells were lysed using MPER lysis buffer (Pierce, Rockford, Ill.) containing Halt Phosphatase and Protease Inhibitors (Pierce, Rockford, Ill.) and Phosphatase inhibitor cocktail 2 (Sigma, St. Louis, Mo.) at 4° C. for 10 minutes with shaking.
(§1) Plate wells were washed with ELISA wash buffer. Cell lysate was added to wells and incubated at room temperature for 2 hours. Plate wells were washed with ELISA wash buffer. […] Plate wells were washed with ELISA wash buffer. […] Plate wells were washed with ELISA wash buffer. […] The reaction was stopped with 2N Sulfuric Acid. The plate was analyzed at on a plate reader measuring absorbance at 450 nm and 540 nm (background). Signal was calculated by first subtracting the background absorbance at 540 nm from the absorbance at 450 nm for each well. Next, the background corrected absorbance at 450 nm from blank wells was subtracted from test wells. Data was compared to control wells to determine % ATG13 phosphorylation. GraphPad Prism was used to calculate IC50 values.
On the technique in general: ELISA stands for enzyme-linked immunosorbent assay.

Assay [2] deals with ULK kinase. Description: pATG13 levels of mutant BRAF A375 cells after treatment with ULK inhibitors in combination with trametinib (ELISA). It is filed as cell-based, human. The settings on record: A375 malignant melanoma cells (mutant BRAF), 250 nM trametinib, overnight, pS318-ATG13. As to the method:
A375 human malignant melanoma cancer cells (20000 cells/well) were added to a 96-well tissue-culture treated plate in 100 μL of pre-warmed DMEM medium supplemented with 10% characterized fetal bovine serum (Invitrogen, Carlsbad, Calif.), 100 units/mL penicillin G, and 100 μg/mL streptomycin and allowed to grow overnight at 37° C., 5% CO2, and 95% humidity. The following day, 100 μL of media containing trametinib or DMSO as a control was added to wells. […] A dose response of a test compound (0.5 μL per well) was added. DMSO (0.5 μL) was added to control wells. The plate was briefly shaken to mix wells and then incubated at 37° C. overnight. The next day, the media was aspirated and cells were washed with Dulbecco's Phosphate Buffered Saline (Gibco). Cells were lysed using MPER lysis buffer (Pierce, Rockford, Ill.) containing Halt Phosphatase and Protease Inhibitors (Pierce, Rockford, Ill.) and Phosphatase inhibitor cocktail 2 (Sigma, St. Louis, Mo.) at 4° C. for 10 minutes with shaking.
as §1

For the next assay, the target named is T1, ULK1 kinase (Homo sapiens, UniProt O75385).
T1 construct: purchased Eurofins 14-959
T1 sequence (O75385 with tags, fused parts or gaps): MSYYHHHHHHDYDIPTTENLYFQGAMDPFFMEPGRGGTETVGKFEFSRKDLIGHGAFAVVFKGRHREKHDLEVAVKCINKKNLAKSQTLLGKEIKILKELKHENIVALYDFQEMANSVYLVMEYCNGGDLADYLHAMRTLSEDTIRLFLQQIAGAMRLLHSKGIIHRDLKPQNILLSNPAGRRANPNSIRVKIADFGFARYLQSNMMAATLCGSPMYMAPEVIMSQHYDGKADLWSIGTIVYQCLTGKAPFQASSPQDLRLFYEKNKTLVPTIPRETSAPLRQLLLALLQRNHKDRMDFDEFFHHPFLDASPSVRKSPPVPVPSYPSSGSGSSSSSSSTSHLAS
Put plainly: Biochemical assay for ULK1.2 (coupled pyruvate kinase/lactate dehydrogenase assay). The conditions noted are these: 19 nM ULK1 (residues 1-314, His tag), myelin basic protein, 1 mM ATP. The method in brief: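 Coupled assay followed the fall in absorbance at 340 nm continuously for 6 hours at 30 °C, with compounds serially diluted at 1% DMSO final. Rates from the 2–3 h window were normalised to no-compound and reference-inhibitor controls. IC50 came from a four-parameter sigmoidal fit.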

The next assay has as its target T2, ULK2 kinase (Homo sapiens, UniProt Q8IYT8).
T2 construct: purchased Eurofins 14-772
Put plainly: Biochemical assay for ULK2 (coupled pyruvate kinase/lactate dehydrogenase assay). The settings on record: 9.7 nM ULK2 (residues 1-306, GST and His tag), myelin basic protein, 1 mM ATP; read-out: ULK2.2. The method in brief: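 Continuous PK/LDH-coupled NADH oxidation assay: 9.7 nM ULK2, 0.25 mg/mL myelin basic protein, 1 mM ATP, pH 7.5 Tris/15 mM MgCl2 buffer, 1% DMSO, 30° C. A340 followed 6 h; rate from 2-3 h window converted to % inhibition, IC50 from four-parameter fit.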

T2 sequence (Q8IYT8 with tags, fused parts or gaps): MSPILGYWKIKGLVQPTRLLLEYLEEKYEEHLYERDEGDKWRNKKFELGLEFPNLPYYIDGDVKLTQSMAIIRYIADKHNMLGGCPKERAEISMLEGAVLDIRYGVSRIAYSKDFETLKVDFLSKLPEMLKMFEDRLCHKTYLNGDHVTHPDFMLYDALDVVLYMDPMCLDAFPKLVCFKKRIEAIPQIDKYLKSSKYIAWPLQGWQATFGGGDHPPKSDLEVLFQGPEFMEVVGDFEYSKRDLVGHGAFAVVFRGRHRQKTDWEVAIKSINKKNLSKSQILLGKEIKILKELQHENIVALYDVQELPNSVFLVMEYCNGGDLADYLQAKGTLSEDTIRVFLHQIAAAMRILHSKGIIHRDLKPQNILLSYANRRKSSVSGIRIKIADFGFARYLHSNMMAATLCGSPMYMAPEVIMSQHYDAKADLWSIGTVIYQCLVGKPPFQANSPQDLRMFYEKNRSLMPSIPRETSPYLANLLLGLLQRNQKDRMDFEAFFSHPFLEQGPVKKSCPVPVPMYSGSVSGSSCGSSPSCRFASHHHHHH

In the case of `CN1CCN(c2ccc(Nc3ncc(C(F)(F)F)c(NCCCN4CCCCC4=O)n3)c(C3CC3)c2)CC1` [Example 14], the IC50 in the assay with ULK kinase [1] lay in the range of 10 to 100 nM; in the assay on ULK kinase [2], 10 to 100 nM; against ULK1 kinase it was 1 to 25 nM; at ULK2 kinase it was 1 to 25 nM.

As for `CCc1cc(N2CCN(C)CC2)ccc1Nc1ncc(C(F)(F)F)c(NCCCN2CCCOC2=O)n1` [Example 39], the IC50 in the assay on ULK kinase [1] is 10 to 100 nM; in the assay with ULK kinase [2], 10 to 100 nM; against ULK1 kinase, 1 to 25 nM; at ULK2 kinase it was 25 to 100 nM.

Consider `CN1CCN(c2ccc(Nc3ncc(C(F)(F)F)c(NCCCN4CCCOC4=O)n3)c(C3CC3)c2)CC1` [Example 41], for which the IC50 in the assay on ULK kinase [1] was 10 to 100 nM; in the assay with ULK kinase [2] it was 10 to 100 nM; at ULK2 kinase, 25 to 100 nM.

Turning to `CCc1cc(N2CCNCC2)ccc1Nc1ncc(C(F)(F)F)c(NCCCN2CCCOC2=O)n1` [Example 46], the IC50 lay within 100 to 300 nM in the assay on ULK kinase [1], 100 to 300 nM in the assay with ULK kinase [2] and 25 to 100 nM on ULK2 kinase.

On to `CN1CCN(c2ccc(Nc3ncc(C(F)(F)F)c(NCCCN4CCCOCC4=O)n3)c(C3CC3)c2)CC1` [Example 52], for which the IC50 in the assay on ULK kinase [1] fell in the range of 10 to 100 nM; with ULK kinase [2] it was 100 to 300 nM; against ULK1 kinase, 1 to 25 nM; at ULK2 kinase, 25 to 100 nM.

Turning to `CN1CCN(c2ccc(Nc3ncc(Cl)c(NCCCN4CCCOCC4=O)n3)c(C3CC3)c2)CC1` [Example 55], the IC50 with ULK kinase [1] was in the range of 10 to 100 nM; in the assay on ULK kinase [2], 100 to 300 nM; at ULK1 kinase, 100 to 500 nM; at ULK2 kinase it was 100 to 500 nM.

As for `CN1CCN(c2ccc(Nc3ncc(C(F)(F)F)c(NCCCN4CCOCCC4=O)n3)c(C3CC3)c2)CC1` [Example 70], the IC50 with ULK kinase [1] is 10 to 100 nM; in the assay on ULK kinase [2], 10 to 100 nM; against ULK1 kinase, 1 to 25 nM; at ULK2 kinase, 25 to 100 nM.

As to `CCc1cc(N2CC3CCC(C2)N3C)ccc1Nc1ncc(C(F)(F)F)c(NCCCN2CCOCCC2=O)n1` [Example 74], the IC50 with ULK kinase [1] was 10 to 100 nM; at ULK2 kinase it was 1 to 25 nM.

For the compound `CCc1cc(N2CCN(C)CC2)ccc1Nc1ncc(Br)c(NCCCN2CCOCCC2=O)n1` [Example 76], the values for the IC50 in the assay with ULK kinase [1] and against ULK1 kinase were 10 to 100 nM and 1 to 25 nM, respectively.

Turning to `CCc1cc(N2CCNCC2)ccc1Nc1ncc(C(F)(F)F)c(NCCCN2CCOCCC2=O)n1` [Example 84], the IC50 in the assay with ULK kinase [1] fell in the range of 10 to 100 nM; in the assay on ULK kinase [2] it was 100 to 300 nM; on ULK2 kinase it was 25 to 100 nM.

As to `CCc1cc(N2CCN(C)CC2)c(F)cc1Nc1ncc(C(F)(F)F)c(NCCCN2CCOCCC2=O)n1` [Example 86], the IC50 lay within 100 to 300 nM with ULK kinase [1] and 10 to 100 nM in the assay on ULK kinase [2].

As to `O=C1OCCCN1CCCNc1nc(Nc2ccc(N3CCNCC3)cc2C2CC2)ncc1C(F)(F)F` [Example 99], the IC50 fell in the range of 100 to 300 nM with ULK kinase [2] and 25 to 100 nM at ULK2 kinase.
